pIC50: −log10 of the molar value. Where two headings read alike, the source gives them in different places.
What was measured:
HCT116 MTAP+/+ = experiment: Inhibition of cellular proliferation (Cell Titer Glo), HCT116 MTAP+/+; type: cell-based; details: Homo sapiens, HCT-116, 96 h, Table 5a, 4 days, read-out: 4 Day Relative Growth Inhibition (MTAP +/+)
Method in brief: (§1)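 After 4 days of compound exposure at 37 °C, starting 24 h after plating, growth of the MTAP-wildtype and MTAP-deleted HCT116 pair was measured as ATP luminescence (CellTiter-Glo). The proliferation index was signal minus no-cell blank, divided by blank-corrected 0.2% DMSO control.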

HCT116 MTAP-/- = experiment: Inhibition of cellular proliferation (Cell Titer Glo), HCT116 MTAP-/-; type: cell-based, human; details: 4 days, read-out: 4 Day Relative Growth Inhibition (MTAP −/−)
Method in brief: as §1

[1] = system: SAM in HCT116 MTAP-deleted cells; experiment: Cellular assay of target engagement (SAM), LC-MS/MS; type: cell-based, human; details: 72 h, read-out: Cell 72 h SAM Inhibition (MTAP −/−)
Method in brief: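 Target engagement was read as intracellular SAM, measured by LC-MS/MS with d3-SAM as internal standard in methanol/acetic acid extracts. These came from MTAP-deleted HCT116 colon carcinoma cells exposed to inhibitor for 72 hrs.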

MAT2A homodimer = target: T1, MAT2A homodimer (Homo sapiens, UniProt P31153); experiment: MAT2A biochemical assay (liberated phosphate, PiColorLock Gold); details: Table 5a; MAT2A biochemical assay; read-out: Enzyme Inhibition
T1 construct: inferred from the Ni sepharose purification and imidazole elution; made in house; host or cells: SF9 insect cells, recombinant baculovirus (Bac to Bac, pFASTBAC1)
T1 sequence (P31153 whole entry): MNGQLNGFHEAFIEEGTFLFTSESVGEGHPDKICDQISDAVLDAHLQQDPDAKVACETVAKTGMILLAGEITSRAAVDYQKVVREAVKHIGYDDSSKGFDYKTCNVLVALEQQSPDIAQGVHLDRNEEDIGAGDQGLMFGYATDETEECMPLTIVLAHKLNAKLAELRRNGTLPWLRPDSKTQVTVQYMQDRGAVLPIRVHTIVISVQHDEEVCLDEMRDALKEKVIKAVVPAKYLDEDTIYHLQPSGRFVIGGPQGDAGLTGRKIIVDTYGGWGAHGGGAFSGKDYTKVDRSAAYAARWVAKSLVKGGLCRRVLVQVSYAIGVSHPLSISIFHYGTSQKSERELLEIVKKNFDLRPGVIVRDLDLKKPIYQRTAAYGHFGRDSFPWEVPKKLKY
Method in brief: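 Readout is liberated phosphate (PiColorLock Gold), stoichiometric with SAM production, quantified against a potassium phosphate standard curve. Enzyme: recombinant MAT2A homodimer from Sf9, equilibrated 60 min at 25 °C with compound before 60 min reaction with substrate mix containing 500 μM ATP and 400 μM L-methionine.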

[2] = Homo sapiens, HCT-116, 96 h, Table 5a
[3] = Homo sapiens, HCT-116, Table 5a
[4] = Table 6, select pairs of compounds

[2H]C([2H])([2H])Oc1ccc(N2C(=O)N(c3ccc4nn(C)c(OC([2H])([2H])[2H])c4c3)Cc3ccc(OCC(F)F)nc32)cc1 [Example 103, 7-(2,2-difluoroethoxy)-3-(3-(methoxy-d3)-2-methyl-2H-indazol-5-yl)-1-(4-(methoxy-d3)phenyl)-3,4-dihydropyrido[2,3-d]pyrimidin-2(1H)-one]
pIC50 (HCT116 MTAP+/+): < 6.00
pIC50 (HCT116 MTAP-/-; [2]): > 7.00
pIC50 [1, 3]: > 7.00
pIC50 (MAT2A homodimer): > 7.00

CCOc1ccc2c(n1)N(c1ccc(OC(F)F)cc1)C(=O)N(c1ccc3nccn3c1)C2 [Example 101, 1-(4-(difluoromethoxy)phenyl)-7-ethoxy-3-(imidazo[1,2-a]pyridin-6-yl)-3,4-dihydropyrido[2,3-d]pyrimidin-2(1H)-one]
pIC50 (HCT116 MTAP+/+): < 6.00
pIC50 (HCT116 MTAP-/-; [2]): 6.00 to 7.00
pIC50 [1, 3]: 6.00 to 7.00
pIC50 (MAT2A homodimer): > 7.00

Cn1cc2cc(N3Cc4ccc(OCC(F)F)nc4N(c4ccc(O)cc4)C3=O)ccc2n1 [Example 295, 7-(2,2-difluoroethoxy)-1-(4-hydroxyphenyl)-3-(2-methyl-2H-indazol-5-yl)-3,4-dihydropyrido[2,3-d]pyrimidin-2(1H)-one]
pIC50 (HCT116 MTAP+/+): < 6.00
pIC50 (HCT116 MTAP-/-; [2]): 6.00 to 7.00
pIC50 [1, 3]: > 7.00
pIC50 (MAT2A homodimer): > 7.00

[2H]C([2H])([2H])Oc1ccc(N2C(=O)N(c3ccc4nn(C)cc4c3)Cc3ccc(OCCC)nc32)cc1 [Example 165, 1-(4-methoxy-d3-phenyl)-3-(2-methyl-2H-indazol-5-yl)-7-propoxy-3,4-dihydropyrido[2,3-d]pyrimidin-2(1H)-one]
pIC50 (HCT116 MTAP+/+): < 6.00
pIC50 (HCT116 MTAP-/-; [2]): 6.00 to 7.00
pIC50 [1, 3]: 6.00 to 7.00
pIC50 (MAT2A homodimer): > 7.00

COc1ccc(N2C(=O)N(c3ccnc(OC)c3)Cc3cnc(NCC(F)(F)F)nc32)cc1 [Example 228, 1-(4-methoxyphenyl)-3-(2-methoxypyridin-4-yl)-7-((2,2,2-trifluoroethyl)amino)-3,4-dihydropyrimido[4,5-d]pyrimidin-2(1H)-one]
pIC50 (HCT116 MTAP+/+): < 6.00
pIC50 (HCT116 MTAP-/-; [2]): 6.00 to 7.00
pIC50 [1, 3]: 6.00 to 7.00
pIC50 (MAT2A homodimer): > 7.00

COc1ccc(N2C(=O)N(c3ccc4nccn4c3)Cc3cnc(NCC(F)(F)F)nc32)cc1 [Example 237]
pIC50 (HCT116 MTAP+/+): < 6.00
pIC50 (HCT116 MTAP-/-; [2]): 6.00 to 7.00
pIC50 [1, 3]: 6.00 to 7.00
pIC50 (MAT2A homodimer): > 7.00

Cn1cc2cc(N3Cc4cnc(NCC(F)(F)F)nc4N(c4ccc(Br)cc4)C3=O)ccc2n1 [Example 425, 1-(4-bromophenyl)-3-(2-methyl-2H-indazol-5-yl)-7-((2,2,2-trifluoroethyl)amino)-3,4-dihydropyrimido[4,5-d]pyrimidin-2(1H)-one]
pIC50 (HCT116 MTAP+/+): < 6.00
pIC50 (HCT116 MTAP-/-; [2]): > 7.00
pIC50 [1, 3]: > 7.00
pIC50 (MAT2A homodimer): > 7.00

COc1ccc(N2Cc3cnc(NCC(F)(F)F)nc3N(c3ccc(Br)cc3)C2=O)cc1 [Example 236, 1-(4-bromophenyl)-3-(4-methoxyphenyl)-7-((2,2,2-trifluoroethyl)amino)-3,4-dihydropyrimido[4,5-d]pyrimidin-2(1H)-one]
pIC50 (HCT116 MTAP+/+): < 6.00
pIC50 (HCT116 MTAP-/-; [2]): < 6.00
pIC50 [1, 3]: 6.00 to 7.00
pIC50 (MAT2A homodimer): > 7.00

CCOc1ccc2c(n1)N(c1ccc(OC(F)(F)F)nc1)C(=O)N(c1ccc3nn(C)cc3c1)C2 [Example 147, 7-ethoxy-3-(2-methyl-2H-indazol-5-yl)-1-(6-(trifluoromethoxy)pyridin-3-yl)-3,4-dihydropyrido[2,3-d]pyrimidin-2(1H)-one]
pIC50 (HCT116 MTAP+/+): < 6.00
pIC50 (HCT116 MTAP-/-; [2]): 6.00 to 7.00
pIC50 [1, 3]: 6.00 to 7.00
pIC50 (MAT2A homodimer): > 7.00

CCOc1ccc2c(n1)N(c1ccc(OC(F)F)cc1)C(=O)N(c1ccc3ncccc3c1)C2 [Example 112, 1-(4-(difluoromethoxy)phenyl)-7-ethoxy-3-(quinolin-6-yl)-3,4-dihydropyrido[2,3-d]pyrimidin-2(1H)-one]
pIC50 (HCT116 MTAP+/+): < 6.00
pIC50 (HCT116 MTAP-/-; [2]): 6.00 to 7.00
pIC50 [1, 3]: 6.00 to 7.00
pIC50 (MAT2A homodimer): > 7.00

COc1ccc(N2C(=O)N(c3ccc4nn(C)cc4c3)Cc3ncc(OCC(F)F)nc32)cc1 [Example 180, 7-(2,2-difluoroethoxy)-1-(4-methoxyphenyl)-3-(2-methyl-2H-indazol-5-yl)-3,4-dihydropteridin-2(1H)-one]
pIC50 (HCT116 MTAP+/+): 6.00 to 7.00
pIC50 (HCT116 MTAP-/-; [2]): > 7.00
pIC50 [1, 3]: > 7.00
pIC50 (MAT2A homodimer): > 7.00

COc1ccc(N2Cc3cnc(NCC(F)(F)F)nc3N(c3ccc(OC)cc3)C2=O)cc1 [Example 255, 1,3-bis(4-methoxyphenyl)-7-((2,2,2-trifluoroethyl)amino)-3,4-dihydropyrimido[4,5-d]pyrimidin-2(1H)-one]
pIC50 (HCT116 MTAP+/+): < 6.00
pIC50 (HCT116 MTAP-/-; [2]): 6.00 to 7.00
pIC50 [1, 3]: 6.00 to 7.00
pIC50 (MAT2A homodimer): > 7.00

[2H]C([2H])([2H])Oc1ccc(N2C(=O)N(c3ccc4nn(CCC)cc4c3)Cc3ccc(OCC(F)F)nc32)cc1 [Example 123, 7-(2,2-difluoroethoxy)-1-(4-methoxy-d3-phenyl)-3-(2-propyl-2H-indazol-5-yl)-3,4-dihydropyrido[2,3-d]pyrimidin-2(1H)-one]
pIC50 (HCT116 MTAP+/+): < 6.00
pIC50 (HCT116 MTAP-/-; [2]): 6.00 to 7.00
pIC50 [1, 3]: > 7.00
pIC50 (MAT2A homodimer): > 7.00

COc1ccc(N2C(=O)N(c3ccc4nn(C)cc4c3)Cc3ccc(OCC(F)F)nc32)cc1 [Example 141, 7-(2,2-difluoroethoxy)-1-(4-methoxyphenyl)-3-(2-methyl-2H-indazol-5-yl)-3,4-dihydropyrido[2,3-d]pyrimidin-2(1H)-one]
pIC50 (HCT116 MTAP+/+): 6.00 to 7.00
pIC50 (HCT116 MTAP-/-; [2]): > 7.00
pIC50 [1, 3]: > 7.00
pIC50 (MAT2A homodimer): > 7.00

Cn1cc2cc(N3Cc4ccc(OCC(F)F)nc4N(c4ccc(NC(N)=O)cc4)C3=O)ccc2n1 [Example 412, 1-(4-(7-(2,2-difluoroethoxy)-3-(2-methyl-2H-indazol-5-yl)-2-oxo-3,4-dihydropyrido[2,3-d]pyrimidin-1(2H)-yl)phenyl)urea]
pIC50 (HCT116 MTAP+/+): < 6.00
pIC50 (HCT116 MTAP-/-; [2]): > 7.00
pIC50 [1, 3]: > 7.00
pIC50 (MAT2A homodimer): > 7.00

Cn1cc2cc(N3Cc4ccc(NCC(F)(F)F)nc4N(c4ccc(OC(F)F)cc4)C3=O)ccc2n1 [Example 264, 1-(4-(difluoromethoxy)phenyl)-3-(2-methyl-2H-indazol-5-yl)-7-((2,2,2-trifluoroethyl)amino)-3,4-dihydropyrido[2,3-d]pyrimidin-2(1H)-one]
pIC50 (HCT116 MTAP+/+): < 6.00
pIC50 (HCT116 MTAP-/-; [2]): > 7.00
pIC50 (HCT116 MTAP-/-; [4]): > 7.00
pIC50 [1, 3]: > 7.00
pIC50 [1, 4]: > 7.00
pIC50 (MAT2A homodimer): > 7.00

CCOc1ccc2c(n1)N(c1ccc(-c3nnc[nH]3)cc1)C(=O)N(c1ccc3ncn(C)c3c1)C2 [Example 154, 1-(4-(4H-1,2,4-triazol-3-yl)phenyl)-7-ethoxy-3-(1-methyl-1H-benzo[d]imidazol-6-yl)-3,4-dihydropyrido[2,3-d]pyrimidin-2(1H)-one]
pIC50 (HCT116 MTAP+/+): 6.00 to 7.00
pIC50 (HCT116 MTAP-/-; [2]): 6.00 to 7.00
pIC50 [1, 3]: > 7.00
pIC50 (MAT2A homodimer): > 7.00

CCCc1ccc2c(n1)N(c1ccc(OC)cc1)C(=O)N(c1ccc3nn(C)cc3c1)C2 [Example 294, 1-(4-methoxyphenyl)-3-(2-methyl-2H-indazol-5-yl)-7-propyl-3,4-dihydropyrido[2,3-d]pyrimidin-2(1H)-one]
pIC50 (HCT116 MTAP+/+): < 6.00
pIC50 (HCT116 MTAP-/-; [2]): > 7.00
pIC50 [1, 3]: > 7.00
pIC50 (MAT2A homodimer): > 7.00

[2H]C([2H])([2H])Oc1ccc(N2C(=O)N(c3ccc4nn(C)cc4c3)Cc3ncc(OCC)nc32)cc1 [Example 417, 7-ethoxy-1-(4-(methoxy-d3)phenyl)-3-(2-methyl-2H-indazol-5-yl)-3,4-dihydropteridin-2(1H)-one]
pIC50 (HCT116 MTAP+/+): 6.00 to 7.00
pIC50 (HCT116 MTAP-/-; [2]): 6.00 to 7.00
pIC50 [1, 3]: > 7.00
pIC50 (MAT2A homodimer): > 7.00

O=C1N(c2ccc3ncccc3c2)Cc2cnc(NCC(F)(F)F)nc2N1c1ccc(-c2nc[nH]n2)cc1 [Example 223, 1-(4-(1H-1,2,4-triazol-3-yl)phenyl)-3-(quinolin-6-yl)-7-((2,2,2-trifluoroethyl)amino)-3,4-dihydropyrimido[4,5-d]pyrimidin-2(1H)-one]
pIC50 (HCT116 MTAP+/+): < 6.00
pIC50 (HCT116 MTAP-/-; [2]): 6.00 to 7.00
pIC50 [1, 3]: > 7.00
pIC50 (MAT2A homodimer): > 7.00

CCOc1ccc2c(n1)N(c1ccc(OC)cc1)C(=O)N(c1ccc3ncn(C)c3c1)C2 [Example 138, 7-ethoxy-1-(4-methoxyphenyl)-3-(1-methyl-1H-benzo[d]imidazol-6-yl)-3,4-dihydropyrido[2,3-d]pyrimidin-2(1H)-one]
pIC50 (HCT116 MTAP+/+): < 6.00
pIC50 (HCT116 MTAP-/-; [2]): 6.00 to 7.00
pIC50 [1, 3]: > 7.00
pIC50 (MAT2A homodimer): > 7.00

[2H]C([2H])([2H])Oc1ccc(N2C(=O)N(c3ccc4nn(C5CC5)cc4c3)Cc3ccc(OCC(F)F)nc32)cc1 [Example 115, 3-(2-cyclopropyl-2H-indazol-5-yl)-7-(2,2-difluoroethoxy)-1-(4-methoxy-d3-phenyl)-3,4-dihydropyrido[2,3-d]pyrimidin-2(1H)-one]
pIC50 (HCT116 MTAP+/+): < 6.00
pIC50 (HCT116 MTAP-/-; [2]): > 7.00
pIC50 [1, 3]: 6.00 to 7.00
pIC50 (MAT2A homodimer): > 7.00

Cn1cc2cc(N3Cc4ccc(OCC(F)F)nc4N(c4ccc5ncccc5c4)C3=O)ccc2n1 [Example 175, 7-(2,2-difluoroethoxy)-3-(2-methyl-2H-indazol-5-yl)-1-(quinolin-6-yl)-3,4-dihydropyrido[2,3-d]pyrimidin-2(1H)-one]
pIC50 (HCT116 MTAP+/+): 6.00 to 7.00
pIC50 (HCT116 MTAP-/-; [2]): 6.00 to 7.00
pIC50 [1, 3]: > 7.00
pIC50 (MAT2A homodimer): > 7.00

Source: US20220098203A1 (priority 2018, published 2022)
